This test addresses T1, hS1P1 receptor (Homo sapiens, UniProt P21453).
T1 construct: host or cells: U2OS
Briefly: hS1P1 receptor internalization assay (cell imaging-based, hS1P1-eGFP U2OS cells). The settings on record: U2OS cell line expressing hS1P1-eGFP, compounds incubated at 37° C. for one hour; for Emax: 1 h, efficacy (Max), read-out: hS1P1 Receptor Internalization (biolimaging) Max (%); for EC50: GFP-containing endosomes per cell (ArrayScan), read-out: hS1P1 Receptor Internalization (bioimaging) EC50 IP. The procedure: The activity of compounds of the invention was determined by a cell imaging-based assay measuring the degree of hS1P1 receptor internalization and a Ca^2+ mobilization assay measuring the level of S1P receptor activation. The receptor internalization assay was employed to determine the potency and efficacy of compounds on hS1P1 receptor, while Ca^2+ mobilization assay was used to determine selectivity among different S1P receptors and activity on S1P receptors from species such as rat, dog, and cyno. The hS1P1 receptor internalization assay was performed using a U2OS cell line expressing hS1P1-eGFP chimeric protein (Thermo Scientific, Soeborg, Denmark). Upon compound treatment, the hS1P1 receptor was internalized in cytoplasma and formed GFP-containing-endosomes. This event was detected by an automated microscope, ArrayScan (Thermo Scientific Cellomics, Pittsburg), and the degree of receptor internalization is quantitated by counting green fluorescent GFP-containing endosomes per cell. In this assay, hS1P1-eGFP expressing U2OS cells were starved in serum free media for two hours prior to compound treatment. Then compounds were incubated with the starved cells at 37° C. for one hour. Subsequently, compound-treated cells were fixed using 4% formaldehyde, and the nuclei were stained using Hoechst. Then the cells were imaged in ArrayScan. The potency and efficacy of the compounds were determined by plotting the number of green fluorescent GFP-containing endosomes per cell against corresponding compound concentration.

Counter-ions that a name gives are not always drawn.

T1 sequence (P21453 whole entry): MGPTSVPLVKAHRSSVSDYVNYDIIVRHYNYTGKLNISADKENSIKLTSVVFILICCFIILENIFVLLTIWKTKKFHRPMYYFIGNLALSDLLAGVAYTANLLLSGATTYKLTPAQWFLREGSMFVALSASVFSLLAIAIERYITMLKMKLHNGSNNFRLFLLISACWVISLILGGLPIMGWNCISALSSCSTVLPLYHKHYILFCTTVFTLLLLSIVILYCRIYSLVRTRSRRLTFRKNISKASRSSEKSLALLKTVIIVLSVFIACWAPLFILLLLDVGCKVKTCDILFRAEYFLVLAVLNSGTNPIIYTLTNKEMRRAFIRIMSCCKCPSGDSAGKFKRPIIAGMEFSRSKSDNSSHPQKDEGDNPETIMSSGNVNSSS

For the compound `NC1(c2ccc(-c3nc4ccc(C5(c6ccccc6)CC5)nc4s3)c(F)c2)CC1` [Example 20, 1-(3-fluoro-4-(5-(1-phenylcyclopropyl)thiazolo[5,4-b]pyridine-2-yl)phenyl)cyclopropanamine], the Emax came to 160% and the EC50 is 31.2 nM.
In the case of `CC(C)(N)c1ccc(-c2nc3ccc(C4(c5ccccc5)CC4)nc3s2)c(F)c1` [Example 22, 2-(3-fluoro-4-(5-(1-phenylcyclopropyl)thiazolo[5,4-b]pyridine-2-yl)phenyl)-propan-2-amine], the Emax stood at 157% and the half-maximal effective concentration (EC50) was found to be 192 nM.
For the compound `O=C(O)CCc1ccc(-c2nc3ccc(C4(c5ccccc5)CC4)nc3s2)c(F)c1` [Example 27, 3-(3-fluoro-4-(5-(1-phenylcyclopropyl)thiazolo[5,4-b]pyridine-2-yl)-phenyl)propanoic acid], the Emax was determined as 81% and the EC50 is 5880 nM.
The matching figures for `OCC(CO)Cc1ccc(-c2nc3ccc(C4(c5ccccc5)CC4)nc3s2)c(F)c1` [Example 29, 2-(3-fluoro-4-(5-(1-phenylcyclopropyl)thiazolo[5,4-b]pyridine-2-yl)benzyl)propane-1,3-diol]: 91% and 334 nM.
The matching figures for `O=C(O)C1(C(=O)O)CC(Cc2ccc(-c3nc4ccc(C5(c6ccccc6)CC5)nc4s3)c(F)c2)C1` [Example 30, 3-(3-fluoro-4-(5-(1-phenylcyclopropyl)thiazolo[5,4-b]pyridine-2-yl)benzyl)cyclobutane-1,1-dicarboxylic acid]: 79% and 2910 nM.
Turning to `OC1CN(Cc2ccc(-c3nc4ccc(C5(c6ccccc6)CC5)nc4s3)c(F)c2)C1` [Example 35, 1-(3-fluoro-4-(5-(1-phenylcyclopropyl)thiazolo[5,4-b]pyridin-2-yl)benzyl)-azetidin-3-ol], the Emax worked out at 90% and the EC50 was determined as 18.7 nM.
On to `O=C(O)C1CN(Cc2ccc(-c3nc4ccc(C5(c6ccccc6F)CC5)nc4s3)c(F)c2)C1` [Example 38, 1-(3-fluoro-4-(5-(1-(2-fluorophenyl)cyclopropyl)thiazolo[5,4-b]pyridine-2-yl)-benzyl)azetidine-3-carboxylic acid], for which the Emax came out at 111% and the EC50 is 3.7 nM.
As to `O=C(O)C1CN(Cc2ccc(-c3nc4ccc(C5(c6ccc(O)cc6)CC5)nc4s3)c(F)c2)C1` [Example 39, 1-(3-fluoro-4-(5-(1-(4-hydroxyphenyl)cyclopropyl)thiazolo[5,4-b]pyridine-2-yl)benzyl)azetidine-3-carboxylic acid], the Emax is 83% and the half-maximal effective concentration (EC50) amounted to 21.2 nM.
The corresponding values for `NC(CO)(CO)CCc1ccc(-c2nc3ccc(C4(c5ccccc5)CC4)nc3s2)c(F)c1` [Example 42, 2-amino-2-(3-fluoro-4-(5-(1-phenylcyclopropyl)thiazolo[5,4-b]pyridin-2-yl)phenethyl)propane-1,3-diol hydrochloride] are 119% and 10.2 nM.
The matching figures for `O=C(O)C1CN(Cc2ccc(-c3nc4nc(C5(c6ccccc6)CC5)ccc4s3)c(F)c2)C1` [Example 44, 1-(3-fluoro-4-(5-(1-phenylcyclopropyl)thiazolo[4,5-b]pyridin-2-yl)-benzyl)azetidine-3-carboxylic acid trifluoroacetic acid salt]: 113% and 59.7 nM.
The corresponding values for `O=C(O)C1CN(Cc2ccc(-c3nc4cnc(C5(c6ccccc6)CC5)cc4s3)c(F)c2)C1` [Example 45, 1-(3-fluoro-4-(6-(1-phenylcyclopropyl)thiazolo[4,5-c]pyridine-2-yl)benzyl)azetidine-3-carboxylic acid trifluoroacetic acid salt] are 103% and 99.7 nM.
In the case of `Nc1cc(CN2CC(C(=O)O)C2)ccc1-c1nc2ccc(C3(c4ccccc4)CC3)nc2s1` [Example 46, 1-(3-amino-4-(5-(1-phenylcyclopropyl)thiazolo[5,4-b]pyridin-2-yl)benzyl)azetidine-3-carboxylic acid], the Emax was 99% and the EC50 stood at 4.8 nM.
The matching figures for `O=C(O)C1CN(Cc2ccc(-c3nc4ccc(C5(C6CCCCC6)CC5)nc4s3)c(F)c2)C1` [Example 47, 1-(4-(5-(1-cyclohexylcyclopropyl)thiazolo[5,4-b]pyridine-2-yl)-3-fluorobenzyl)azetidine-3-carboxylic acid trifluoroacetic acid salt]: 117% and 5.9 nM.
The matching figures for `O=C(O)C1CN(Cc2ccc(-c3nc4ccc(C5(C6CCOCC6)CC5)nc4s3)c(F)c2)C1` [Example 52, 1-(3-fluoro-4-(5-(1-(tetrahydro-2H-pyran-4-yl)cyclopropyl)thiazolo[5,4-b]pyridine-2-yl)benzyl)azetidine-3-carboxylic acid trifluoroacetic acid salt]: 109% and 1190 nM.
For `O=C(O)[C@@H]1C[C@H](c2ccc(-c3nc4ccc(C5(c6ccccc6)CC5)nc4s3)c(F)c2)CN1` [Example 54, (2S,4R)-4-(3-fluoro-4-(5-(1-phenylcyclopropyl)thiazolo[5,4-b]pyridine-2-yl)phenyl)pyrrolidine-2-carboxylic acid trifluoroacetic acid salt], the Emax came out at 126% and the concentration giving a half-maximal response (EC50) is 4.5 nM.
The corresponding values for `O=C(O)C(=O)NCCc1ccc(-c2nc3ccc(C4(c5ccccc5)CC4)nc3s2)c(F)c1` [Example 57, ((2-(3-fluoro-4-(5-(1-phenylcyclopropyl)[1,3]thiazolo[5,4-b]pyridin-2-yl)phenyl)ethyl)amino)(oxo)acetic acid] are 107% and 35.5 nM.
The matching figures for `Fc1cc(CCNCc2ccccc2)ccc1-c1nc2ccc(C3(c4ccccc4)CC3)nc2s1` [Example 60, N-benzyl-2-(3-fluoro-4-(5-(1-phenylcyclopropyl)[1,3]thiazolo[5,4-b]pyridin-2-yl)phenyl)ethanamine]: 162% and 721 nM.
The corresponding values for `CS(=O)(=O)NCCc1ccc(-c2nc3ccc(C4(c5ccccc5)CC4)nc3s2)c(F)c1` [Example 61, N-(2-(3-fluoro-4-(5-(1-phenylcyclopropyl)[1,3]thiazolo[5,4-b]pyridin-2-yl)phenyl)ethyl)methanesulfonamide] are 491% and 2490 nM.
As for `O=C(O)C1CN(Cc2ccc(-c3nc4ccc(C5(c6ccccn6)CC5)cc4s3)c(F)c2)C1` [Example 62, 1-((3-fluoro-4-(6-(1-(pyridine-2-yl)cyclopropyl)benzo[d]thiazol-2-yl)-phenyl)methyl)azetidine-3-carboxylic acid], the Emax is 98% and the EC50 stood at 3710 nM.
The matching figures for `Cc1cc(-c2nc3ccc(C4(c5ccccc5)CC4)nc3s2)cc(C)c1OC[C@H](O)CO` [Example 67, (R)-3-(2,6-dimethyl-4-(5-(1-phenylcyclopropyl)thiazolo[5,4-b]pyridin-2-yl)phenoxy)propane-1,2-diol]: 125% and 70.4 nM.
The corresponding values for `O=C(O)[C@@H]1C[C@@H](Oc2ccc(-c3nc4ccc(C5(c6ccccc6)CC5)nc4s3)cc2)CN1` [Example 72, (2S,4R)-4-(4-(5-(1-phenylcyclopropyl)thiazolo[5,4-b]pyridin-2-yl)phenoxy)pyrrolidine-2-carboxylic acid] are 133% and 45.1 nM.

The record behind these values is patent publication US7842685B2, “S1P1 receptor agonists and use thereof” (Amgen Inc., priority 2008, dated 2010).
